Data: the NIST ThermoML archive (doi:10.1021/je900596d)

Conditions: 357.01 K, Liquid, Vibrating tube method

FC(F)=C(F)C(F)(F)F [hexafluoropropene]
Conditions	mass density [kg/m3]
3815.9 kPa	942.63
3841.4 kPa	944.76
3866.1 kPa	946.85
3891.2 kPa	948.86
3916.1 kPa	950.85
3941.3 kPa	952.87
3966.7 kPa	954.74
3992.1 kPa	956.67
4032.7 kPa	959.68
4052.9 kPa	961.12
4073.2 kPa	962.41
4094 kPa	963.87
4114.8 kPa	965.29
4135 kPa	966.6
4155.1 kPa	967.92
4175.4 kPa	969.27
4195.5 kPa	970.62
4215.6 kPa	971.88
4258.3 kPa	974.59
4279.4 kPa	975.81
4299.6 kPa	977.03
4320.4 kPa	978.34
4340.8 kPa	979.7
4361.8 kPa	980.83
4383.2 kPa	982.1
4404.3 kPa	983.28
4445.8 kPa	985.59
4467.1 kPa	986.71
4488.7 kPa	987.99
4929.3 kPa	1009.65
4970.6 kPa	1011.35
5012.8 kPa	1013.28
5053.2 kPa	1015.04
5094.4 kPa	1016.71
5178.4 kPa	1020.12
5218.9 kPa	1021.7
5262 kPa	1023.52
5302.8 kPa	1025.13
5344.2 kPa	1026.56
5426.4 kPa	1029.68
5468.6 kPa	1031.33
5509.4 kPa	1032.71
5595.1 kPa	1035.91
5636.8 kPa	1037.33
5678.3 kPa	1038.78
5720.2 kPa	1040.29
5761.9 kPa	1041.7
5802.7 kPa	1043
5844 kPa	1044.41
5885.2 kPa	1045.79
5926.3 kPa	1047.08
5966.4 kPa	1048.43
6079.9 kPa	1052.05
6121.3 kPa	1053.27
6161.6 kPa	1054.49
6202.1 kPa	1055.73
6242.6 kPa	1057.02
6283 kPa	1058.17
6323.7 kPa	1059.35
6365.4 kPa	1060.53
6405.9 kPa	1061.73
6446.1 kPa	1062.93
6487.1 kPa	1063.92
6527.7 kPa	1065.18
6568.3 kPa	1066.33
6649.5 kPa	1068.55
6689.8 kPa	1069.61
6730.6 kPa	1070.82
6771.8 kPa	1071.89
6812.8 kPa	1072.89
6854 kPa	1074.05
6894.2 kPa	1075.07
6976.2 kPa	1077.12
7016.9 kPa	1078.17
7059.1 kPa	1079.19
7099.3 kPa	1080.34
7141 kPa	1081.32
7182 kPa	1082.35
7223.7 kPa	1083.32
7265.2 kPa	1084.37
7306.5 kPa	1085.33
7391.5 kPa	1087.34
7432.1 kPa	1088.27
7472.8 kPa	1089.26
7514.5 kPa	1090.2
7555.9 kPa	1091.18
7596.5 kPa	1092.11
7637.6 kPa	1093.07
7760.7 kPa	1095.83
7802.6 kPa	1096.76
7843.1 kPa	1097.59
7885.2 kPa	1098.49
7925.7 kPa	1099.42
7967.5 kPa	1100.24
8050.7 kPa	1102.02
8094 kPa	1102.97
8134 kPa	1103.77
8175.6 kPa	1104.71
8217.3 kPa	1105.6
8258 kPa	1106.39
8301 kPa	1107.38
8342.7 kPa	1108.09
8385.4 kPa	1108.93
8428.9 kPa	1109.88
8510.3 kPa	1111.46
8552.8 kPa	1112.27
8592.9 kPa	1113.04
8634.2 kPa	1113.83
8675.9 kPa	1114.7
8717.3 kPa	1115.43
8760 kPa	1116.3
8843.1 kPa	1117.91
8884.8 kPa	1118.68
8926.5 kPa	1119.39
8969.2 kPa	1120.21
9010.2 kPa	1120.94
9055 kPa	1121.82
9096.9 kPa	1122.57
9138.6 kPa	1123.29
9223.4 kPa	1124.87
9264.9 kPa	1125.67
9307.3 kPa	1126.46
9350.7 kPa	1127.19
9393 kPa	1127.83
9476.5 kPa	1129.45
9518.3 kPa	1130.09
9558.9 kPa	1130.8
9598.9 kPa	1131.49
9640.9 kPa	1132.16
9683.8 kPa	1132.95
9726.5 kPa	1133.66
9769.9 kPa	1134.38
9810.5 kPa	1135.04
